In patent publication US5162328A, “N-[3-[2-(1H-imidazol-1-yl)ethoxy]phenyl]-4-(2-thienyl)-2-pyrimidinamine and pharmacologically acceptable salts” (American Cyanamid Company, priority 1991, dated 1992):
“And” between values parts separate entries of the source, which are not always exact repeats. Equal values may be shown once.

Test system: passive cutaneous anaphylaxis lesions in the rat
Experiment: Rat Passive Cutaneous Anaphylaxis Assay (PCA)
Format: in vivo, rat (male Wistar strain)
Details: for Lesion Area (Low IgE) / Lesion Area (High IgE): mean ± SD
Experimental: Solutions made by dissolving 0.50 g in 100 ml of normal saline. Mouse monoclonal IgE (ICN Biochemicals) clone SPE-7 directed against DNP is subdivided into 50 ul aliquots and stored at -70° C. DNP-ovalbumin is made by reacting DNP sulfonic acid with ovalbumin dissolved in saline overnight at room temperature. The resulting solution is dialyzed extensively at 4 C to remove unreacted DNPsulfonic acid and stored as 1 mL aliquots of 100 mg/ml at -70° C. Male Wistar strain rats, certified viral free, weighing 250-300 g are obtained from Hilltop Laboratory Animals and housed, in accordance with AALAC standards, on site for at least one week before use. Forty-eight hours before challenge the rats are shaved on the dorsal surfaces and returned to the cages. Twenty-four hours before challenge the rats are given intradermal injections of 0.1 mL, one on each flank, of saline containing IgE at concentrations ranging from 1000 to 250 ng/mL. These injections give a local dose of 100 to 25 ng IgE. The IgE binds to specific receptors on mast cells in the skin. […] To the Evan's blue dye is added sufficient DNP-ovalbumin to make a 1 mg/ml solution. This allergen containing dye is injected intravenously via a tail vein into the rats at 10 ml/Kg. The Evans' blue binds to plasma albumin and remains in the vascular space under conditions of normal capillary permeability. The allergen, which can diffuse into the extravascular space, binds to the IgE on the surface of the cutaneous mast cells and initiates the immediate hypersensitivity response which leads to the release of histamine by intracellular granules of the mast cell. The histamine causes an increase in capillary permeability which allows plasma proteins including the dye tagged albumin to diffuse into the extracellular space resulting in a blue spot in the skin. The size of the lesion is proportional to the amounts of mediators released. This process reaches an optimum in 30 minutes. Thirty minutes after challenge the rats are euthanized by CO2. The skin is reflected from the back and the lesion areas estimated as the product of the largest diameter of the bluespot and the diameter perpendicular to it. A compound which is a mediator release inhibitor will reduce the spot area. The effectiveness of the compounds is determined by Analysis of Variance of the lesion areas grouped by IgE dose and compound. Compounds are considered active at the P<0.05 level. Table II contains the results of the experiments expressed as the areas of the lesions in mm^2. The control lesions for these experiments are also listed. Because more than one compound at a time is tested, some of the control values are repeated in the table. Table III contains the data expressed as a % of the appropriate control.

[1] = 0.5 mg/kg PO 2 hrs, IgE 50 ng/site

| SMILES | Lesion Area (Low IgE) (0.5 mg/kg PO 2 hrs, IgE 25 ng/site, dihydrochloride) | Lesion Area (High IgE) [1] | Lesion Area (High IgE) (0.5 mg/kg PO 2 hrs, IgE 100 ng/site, dihydrochloride) | % CONTROL (lesion area) (0.5 mg/kg PO @ 2 hrs, dihydrochloride) | Lesion Area (Low IgE) (1.0 mg/kg PO 2 hrs, IgE 25 ng/site) | Lesion Area (High IgE) (1.0 mg/kg PO 2 hrs, IgE 50 ng/site) | % CONTROL (lesion area) (1 mg/kg PO @ 2 hrs) | Lesion Area (Low IgE) (0.25 mg/kg PO 2 hrs, IgE 33 ng/site) | Lesion Area (High IgE) (0.25 mg/kg PO 2 hrs, IgE 50 ng/site) | % CONTROL (lesion area) (0.25 mg/kg PO @ 2 hrs) | Lesion Area (Low IgE) (0.5 mg/kg PO 2 hrs, IgE 33 ng/site) | % CONTROL (lesion area) (0.5 mg/kg PO @ 2 hrs) | Lesion Area (Low IgE) (2.5 mg/kg PO 2 hrs, IgE 25 ng/site) | Lesion Area (High IgE) (2.5 mg/kg PO 2 hrs, IgE 100 ng/site) | % CONTROL (lesion area) (2.5 mg/kg PO @ 2 hrs) | activity in rat PCA test (in words) (compared with the two compounds of U.S. Pat. No. 4,788,195) |
| --- | --- | --- | --- | --- | --- | --- | --- | --- | --- | --- | --- | --- | --- | --- | --- | --- |
| Cc1cc(Nc2nccc(-c3ccncc3)n2)ccc1N.Cl.Cl [Compound 2, 2-methyl-N^4-[4-(4-pyridinyl)-2-pyrimidinyl]-1,4-benzenediamine dihydrochloride, reference compound] | 135 ± 20 mm^2 and 97 ± 7 mm^2 and 105 ± 12 mm^2 | 157 ± 15 mm^2 | 217 ± 35 mm^2 and 362 ± 62 mm^2 | 113.6% and 74.6% and 81% | 10 ± 15 mm^2 | 123 ± 16 mm^2 | 57.9% |  |  |  |  |  |  |  |  |  |
| CCN(CC)CCOc1ccc(Nc2nccc(-c3ccncc3)n2)cc1.Cl.Cl [Compound 3, N-[4-[2-(diethylamino)ethoxy]phenyl]-4-(4-pyridinyl)-2-pyrimidinamine dihydrochloride, reference compound] |  | 149 ± 22 mm^2 |  |  |  |  |  | 108 ± 26 mm^2 | 215 ± 24 mm^2 | 45.1% | 68 ± 44 mm^2 | 28.6% | 54 ± 38 mm^2 | 105 ± 47 mm^2 | 33.7% |  |
| c1cc(Nc2nccc(-c3cccs3)n2)cc(OCCn2ccnc2)c1 [N-[3-[2-(1H-imidazol-1-yl)ethoxy]phenyl]-4-(2-thienyl)-2-pyrimidinamine] |  |  |  |  |  |  |  |  |  |  |  |  |  |  |  | essentially equivalent high activity |
